This is an account of results in paper PMC4822798 (Clinical Pharmacology : Advances and Applications, 2016).

The conditions of data set [1]: cited from earlier work.
The subject of another data set is MRSA strains. The data set can be described thus: Teicoplanin susceptibility testing. Type of data set: cell-based, methicillin-resistant Staphylococcus aureus. The settings on record: Mueller-Hinton agar, E-test, 16–20 hours at 37°C.
Data set [2] concerns MRSA infections. The data set can be described thus: PK/PD analysis: AUC24/MIC ratio versus bacteriological response in patients. In kind it is in vivo, patients (human). As to conditions: for probability of treatment success: logistic regression, 46 patients.
The conditions of data set [3]: mean population PK parameter, Japanese patients; cited from earlier work.
Data set [4] has as its system MRSA infections. The settings on record: cited from earlier work; for AUC24 value on the third day: ref 12 (Hagihara et al).
Another data set deals with MRSA isolates. As to conditions: all isolates, cited from earlier work.

Read-outs that look alike come from different tables or passages of the source. Some results are limits rather than exact numbers.

Consider `CN[C@H](CC(C)C)C(=O)N[C@H]1C(=O)N[C@@H](CC(N)=O)C(=O)N[C@H]2C(=O)N[C@H]3C(=O)N[C@H](C(=O)N[C@H](C(=O)O)c4cc(O)cc(O)c4-c4cc3ccc4O)[C@H](O)c3ccc(c(Cl)c3)Oc3cc2cc(c3O[C@@H]2O[C@H](CO)[C@@H](O)[C@H](O)[C@H]2O[C@H]2C[C@](C)(N)[C@H](O)[C@H](C)O2)Oc2ccc(cc2Cl)[C@H]1O` [vancomycin], for which, in data set [1], the “trough concentrations needed to achieve an AUC value of ≥400” value is 10 to 20 µg/mL. The “AUC/MIC ratio associated with clinical and bacteriological responses” value in data set [1] (guidelines for therapeutic drug monitoring) was at least 400.
As for teicoplanin, the MIC (as a rule, the lowest concentration found to suppress growth) against MRSA strains (2.2% of the 46 MRSA strains) is 0.38 µg/mL; against MRSA strains (6.5% of the 46 MRSA strains) it was 0.5 µg/mL; in the data set with MRSA strains (13.0% of the 46 MRSA strains), 1.5 µg/mL; in the data set on MRSA strains (34.8% of the 46 MRSA strains), 1.0 µg/mL; with MRSA strains (43.5% of the 46 MRSA strains) it was 0.75 µg/mL; with MRSA isolates (ref 12), at most 1.0 µg/mL. Besides, the MIC in the data set on MRSA isolates (ref 13) is listed as below 2.0 µg/mL. Besides, the “probability of treatment success” value is reported as 0.50 in the data set with MRSA infections [2] (AUC24/MIC ratio of 500 µg·h/mL on day 3), 0.72 in the data set with MRSA infections [2] (AUC24/MIC ratio of 700 µg·h/mL on day 3) and 0.87 with MRSA infections [2] (AUC24/MIC ratio of 900 µg·h/mL on day 3). Also, the “bacteriological response, AUC24/MIC ratios of ≥900 (n=15) versus <900 (n=31)” value in the data set on MRSA infections [2] (Kaplan–Meier curve analysis, P<0.05) is given as “significantly stronger bacteriological responses”. For the same compound, the “AUC24/MIC ratio required to ensure bacteriological responses” value in the data set on MRSA infections [2] (patients with MRSA infections) is reported as at least 900 µg·h/mL. In addition, in data set [3], the “distribution volume of the central compartment” value was 10.4 L. Also, the “transfer rate constant from the central compartment to the peripheral compartment” value in data set [3] was 0.38 h⁻¹. The “transfer rate constant from the peripheral compartment to the central compartment” value in data set [3] was 0.0485 h⁻¹. In addition, the “trough concentrations effective for treating most infections” value in the data set with MRSA infections [4] is above 13 µg/mL. The “log[Cmax, unbound/MIC] threshold for achieving treatment success” value in the data set on MRSA infections [4] (day 3 of teicoplanin therapy, ref 14 (Ogawa et al)) is listed as 0.30. The “AUC24 value on the third day” value was 652.9 ± 83.4 µg·h/mL in the data set with MRSA infections [4] (treatment failure group) and 897.6 ± 71.7 µg·h/mL in the data set on MRSA infections [4] (treatment success group).
